Among the test systems are RXF 393 renal; BT-549 breast; IGROV1 ovarian; SF-539 CNS; OVCAR-3 ovarian; MOLT-4 leukemia; HCT-116 colon; NCI-H522 lung; ACHN renal; UACC-257 melanoma.
Holding throughout (test): inhibition of tumour cell growth, NCI panel, 48 h

This is an account of results in PubChem BioAssay (NCI).

Values joined by “and” are separate entries in the source; they are usually repeats but may differ in a detail not shown here. Equal entries are not always repeated.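 96-well plates; 48 h exposure; 5 concentrations. Endpoints by linear interpolation between flanking doses. Not reached: highest tested concentration assigned. Abbreviation: GI50, concentration required for 50% inhibition of growth. TGI denotes the concentration required for complete inhibition of growth.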 Bounds are passed on as bounds.

`O=C1C=CC(=O)c2c(O)c(N3CCN(CCOCCO)CC3)c(Cl)c(O)c21`: the GI50 was 0.192 µM and 0.344 µM and 1.35 µM with RXF 393 renal; 0.722 µM and 0.422 µM and 2.27 µM in the assay with BT-549 breast; 1.64 µM [middle of 4 runs] in the assay on IGROV1 ovarian; 0.097 µM and 0.0331 µM in the assay on MOLT-4 leukemia; 333 nM [middle of 4 runs] with HCT-116 colon; 0.313 µM in the assay on NCI-H522 lung. For the same compound, the TGI with RXF 393 renal was 0.422 µM and 1.1 µM and 2.96 µM; with BT-549 breast, 2.11 µM and 1.49 µM and 3.91 µM; in the assay with IGROV1 ovarian, 3.2 µM [middle of 4 runs]; with SF-539 CNS it was 3.31 µM [middle of 4 runs]; in the assay with OVCAR-3 ovarian, 2.14 µM [middle of 4 runs]; with MOLT-4 leukemia, 0.837 µM and 0.175 µM. The TGI with HCT-116 colon is 801 nM [middle of 4 runs]; in the assay with NCI-H522 lung, 1.19 µM and 0.352 µM.
As for `CS(=O)(=O)NC12CCC(c3ccccc31)c1ccccc12`, the TGI in the assay with BT-549 breast, in the assay on IGROV1 ovarian, in the assay with SF-539 CNS, in the assay on OVCAR-3 ovarian, in the assay on MOLT-4 leukemia and in the assay with HCT-116 colon was above 100 µM each time. In addition, the TGI with NCI-H522 lung and in the assay on ACHN renal was above 100 µM in each case.
In the case of `NC(=O)CO/N=C1/C(c2c(O)[nH]c3ccccc23)=Nc2ccccc21`, the TGI with BT-549 breast, with IGROV1 ovarian, with SF-539 CNS, in the assay with OVCAR-3 ovarian, with UACC-257 melanoma and in the assay with MOLT-4 leukemia was above 100 µM each time. Further, the TGI in the assay with HCT-116 colon, in the assay with NCI-H522 lung and in the assay with ACHN renal was above 100 µM each time.
With `Cc1cc2c(c(=O)n1C)SCC2`, the TGI in the assay on RXF 393 renal, in the assay on BT-549 breast, in the assay with IGROV1 ovarian, with OVCAR-3 ovarian, in the assay with UACC-257 melanoma and with MOLT-4 leukemia was above 100 µM each time. For the same compound, the TGI with HCT-116 colon, with NCI-H522 lung and with ACHN renal was above 100 µM throughout.
Consider `CSc1nc(NC(C)C)c2c(n1)Sc1nc3ccccc3n1C2O` (stereo not given), for which the TGI in the assay on RXF 393 renal was 30.4 µM; with BT-549 breast, above 100 µM; in the assay on IGROV1 ovarian, above 100 µM; in the assay on OVCAR-3 ovarian, 5.88 µM; with UACC-257 melanoma it was above 100 µM; in the assay with MOLT-4 leukemia, 14.1 µM. Further, the TGI is above 100 µM with HCT-116 colon, 24.7 µM with NCI-H522 lung and 81.8 µM in the assay with ACHN renal.
For `Cc1cc2cc3c(cc2c(-c2ccc(N)cc2)n1)OCO3`, the TGI in the assay on BT-549 breast is above 100 µM; in the assay on IGROV1 ovarian, 59.5 µM; in the assay with SF-539 CNS it was above 100 µM; in the assay on OVCAR-3 ovarian, 67.9 µM; in the assay on UACC-257 melanoma it was above 100 µM; with MOLT-4 leukemia, 39.6 µM. Moreover, the TGI in the assay with HCT-116 colon, with NCI-H522 lung and with ACHN renal was above 100 µM throughout.
For `COc1ccc2nc3n(c2c1)CCc1cc(OC)c(OC)cc1-3`, the TGI was above 100 µM in the assay on RXF 393 renal; 99.2 µM in the assay on BT-549 breast; above 100 µM in the assay with SF-539 CNS; above 100 µM in the assay on OVCAR-3 ovarian; above 100 µM in the assay with UACC-257 melanoma; above 100 µM in the assay on HCT-116 colon. Also, the TGI in the assay on NCI-H522 lung and in the assay on ACHN renal was above 100 µM throughout.
Take `O=C(c1ccco1)N(C(=S)OC12CC3CC(CC(C3)C1)C2)c1ccccc1`: the TGI in the assay with RXF 393 renal is 44.8 µM; in the assay with BT-549 breast it was above 100 µM; with SF-539 CNS it was 41.7 µM; in the assay on OVCAR-3 ovarian, 77.4 µM; in the assay on UACC-257 melanoma, above 100 µM; in the assay on MOLT-4 leukemia, above 100 µM. Further, the values for the TGI with HCT-116 colon, in the assay on NCI-H522 lung and with ACHN renal were 48.7 µM, 51.8 µM and 83.6 µM, respectively.
Take `COC(=O)CCCC(=O)NC1=C(NCc2ccccc2)C(=O)c2ccccc2C1=O`: the TGI in the assay on BT-549 breast is 93.8 µM; in the assay with IGROV1 ovarian it was above 100 µM; with SF-539 CNS, above 100 µM; in the assay on OVCAR-3 ovarian, 90.6 µM; in the assay with UACC-257 melanoma it was 89.7 µM; with MOLT-4 leukemia, above 100 µM. Moreover, the TGI in the assay with HCT-116 colon, in the assay on NCI-H522 lung and with ACHN renal was above 100 µM throughout.
`CC(C)OC1OC(CO)C(O)CC1n1cc(F)c(=O)[nH]c1=O` (stereo not given): the TGI in the assay with RXF 393 renal, in the assay with BT-549 breast, with IGROV1 ovarian, in the assay on SF-539 CNS, in the assay on OVCAR-3 ovarian and in the assay with UACC-257 melanoma was above 100 µM in each case. Also, the values for the TGI in the assay with HCT-116 colon, in the assay with NCI-H522 lung and with ACHN renal were above 100 µM, 37.8 µM and above 100 µM, respectively.
Take `O=C(Nc1cccc(-n2cc(-c3ccncc3)c(-c3ccc(O)c(Cl)c3)n2)c1)c1cccc(C(F)(F)F)c1`: the GI50 in the assay on RXF 393 renal is 1.1 µM; in the assay with BT-549 breast it was 3.34 µM; with IGROV1 ovarian, 9.88 µM; in the assay on SF-539 CNS, 3.27 µM; in the assay on UACC-257 melanoma, 8.15 µM; in the assay on MOLT-4 leukemia it was 2.96 µM. Also, the GI50 in the assay with HCT-116 colon was 3.24 µM; in the assay with NCI-H522 lung, 2.49 µM; with ACHN renal, 3.71 µM. The TGI with RXF 393 renal is 5.64 µM; in the assay with BT-549 breast it was above 100 µM; in the assay on IGROV1 ovarian, above 100 µM; with SF-539 CNS, above 100 µM; in the assay with UACC-257 melanoma, above 100 µM; in the assay with MOLT-4 leukemia, above 100 µM. Moreover, the TGI with HCT-116 colon, with NCI-H522 lung and in the assay with ACHN renal was above 100 µM each time.
As for `C=C(C)[C@@H]1CC[C@]2(C(=O)O)CC[C@]3(C)[C@H](CCC4[C@@]5(C)CC[C@H](C(=O)/C=C/c6ccc(O)c(O)c6)C(C)(C)[C@@H]5CC[C@]43C)[C@@H]12` (stereo not given in full), the TGI is above 100 µM in the assay with RXF 393 renal; above 100 µM in the assay on BT-549 breast; above 100 µM with IGROV1 ovarian; 22.5 µM in the assay with OVCAR-3 ovarian; 11 µM with UACC-257 melanoma; above 100 µM in the assay with MOLT-4 leukemia. Besides, the figures for the TGI with HCT-116 colon and in the assay with ACHN renal were above 100 µM and 6.51 µM, respectively.
In the case of `O=C1c2ccccc2-c2[nH]c3cn[nH]c(=O)c3c21`, the TGI with BT-549 breast, with IGROV1 ovarian, with SF-539 CNS, in the assay on OVCAR-3 ovarian, in the assay on UACC-257 melanoma and with MOLT-4 leukemia was above 100 µM each time. The TGI is above 100 µM in the assay on HCT-116 colon, 50.9 µM in the assay with NCI-H522 lung and above 100 µM in the assay with ACHN renal.
For `Cc1[nH]c(=O)[nH]c(=S)c1C(=O)Nc1cccc2cc3ccccc3cc12`, the TGI in the assay with RXF 393 renal, with BT-549 breast, with IGROV1 ovarian, with OVCAR-3 ovarian, in the assay with MOLT-4 leukemia and in the assay on HCT-116 colon was above 100 µM throughout. This compound displayed a TGI in the assay with ACHN renal above 100 µM.
